Assay results: PubChem BioAssay AID1259408 (Genetic Toxicology Data Bank (GENE-TOX), 2018)
Active and inactive are the calls of the source. The rule behind the calls is not given here.

System: GENE-TOX genotoxicity assays, various organisms and cells
Experiment: GENE-TOX mutagenicity studies
[1] = Species/Cell Type: Saccharomyces cerevisiae, Assay Type: Mitotic recombination or gene conversion, Assay Code: YEC+, Evaluation Type: Evaluation A (Pre-1980)
[2] = Species/Cell Type: Salmonella typhimurium (one or more of the five standard strains: TA98, TA100, TA1535, TA1537, and TA1538), Assay Type: Histidine reverse gene mutation, Ames assay, Assay Code: SALT, Evaluation Type: Evaluation A (Pre-1980)
[3] = Species/Cell Type: Human lymphocytes, Assay Type: Sister-chromatid exchange (SCE) in vitro, Assay Code: SCL+, Evaluation Type: Evaluation B (Post-1980)
[4] = Species/Cell Type: Human, Assay Type: Sister-chromatid exchange (SCE) in vitro, Assay Code: SC1+, Evaluation Type: Evaluation B (Post-1980)
[5] = Species/Cell Type: Saccharomyces cerevisiae, Assay Type: Mitotic recombination or gene conversion, Assay Code: YEC-, Evaluation Type: Evaluation A (Pre-1980)

## Cc1ccccc1C
Species/Cell Type: Mammalian polychromatic erythrocytes, Assay Type: Micronucleus test, chromosome aberrations, Assay Code: MNTT, Evaluation Type: Evaluation B (Post-1980)
  mutagenic call: no conclusion

## COc1ccc2nc3cc(Cl)ccc3c(NCCCNCCCl)c2n1
Species/Cell Type: Chinese hamster ovary (CHO) cells, Assay Type: Forward gene mutation at the HPRT locus, Assay Code: CHO+D, Dose Response: With dose response, Evaluation Type: Evaluation A (Pre-1980)
  mutagenic call: active; positive

## Cc1cc2cc3cc(C)c(N)cc3nc2cc1N
Species/Cell Type: Mammalian cell culture, nonhuman, Assay Type: Micronucleus test in vitro, chromosome aberrations, Assay Code: MN&+, Evaluation Type: Evaluation A (Pre-1980)
  mutagenic call: active; positive
[1]
  mutagenic call: active; positive

## CC(=O)OC[C@H]1O[C@@H](Oc2ccc(O)c3c2C(=O)c2ccccc2C3=O)[C@H](OC(C)=O)[C@@H](OC(C)=O)[C@@H]1OC(C)=O
[2]
  mutagenic call: no conclusion

## C=C(C)c1ccccc1
[3]
  mutagenic call: active; positive
[4]
  mutagenic call: active; positive

## CC1CN(N=O)CCN1N=O (configuration not stated)
Species/Cell Type: Salmonella typhimurium (one or more of the five standard strains: TA98, TA100, TA1535, TA1537, and TA1538), Assay Type: Histidine reverse gene mutation, Ames assay, Assay Code: SAL+*, Activation: With metabolic activation, Evaluation Type: Evaluation A (Pre-1980)
  mutagenic call: active; positive

## N=C(N)SCCN
[3]
  mutagenic call: active; positive
Species/Cell Type: Human lymphocytes, Assay Type: Sister-chromatid exchange (SCE) in vitro, Assay Code: SCLT, Evaluation Type: Evaluation B (Post-1980)
  mutagenic call: no conclusion
[4]
  mutagenic call: active; positive
Species/Cell Type: Human, Assay Type: Sister-chromatid exchange (SCE) in vitro, Assay Code: SC1T, Evaluation Type: Evaluation B (Post-1980)
  mutagenic call: no conclusion

## COCCOC1=C(N2CC2)C(=O)C(OCCOC)=C(N2CC2)C1=O
Species/Cell Type: Drosophila melanogaster, Assay Type: Sex-linked recessive lethal gene mutation, Assay Code: SRLT, Evaluation Type: Evaluation A (Pre-1980)
  mutagenic call: no conclusion
Species/Cell Type: Nonhuman, Assay Type: Sister-chromatid exchange (SCE) in vitro, Assay Code: SC2+D, Dose Response: With dose response, Evaluation Type: Evaluation B (Post-1980)
  mutagenic call: active; positive

## Cc1ccc(NC(=O)N(CCCl)N=O)cc1NC(=O)N(CCCl)N=O
[1]
  mutagenic call: active; positive

## O=Cc1ccc([N+](=O)[O-])o1
Species/Cell Type: Escherichia coli WP2, Assay Type: Tryptophan reverse gene mutation, Assay Code: WP2-, Evaluation Type: Evaluation A (Pre-1980)
  mutagenic call: inactive; negative
[5]
  mutagenic call: inactive; negative

## C[C@@H]1CCCCN1N=O
Species/Cell Type: Nonhuman, Assay Type: In vivo carcinogenicity studies, Assay Code: CCG+, Evaluation Type: Evaluation A (Pre-1980)
  call: active; positive

## O=[N+]([O-])c1ccc(-c2csc(Nc3ccccc3)n2)o1
Species/Cell Type: Escherichia coli WP2, Assay Type: Tryptophan reverse gene mutation, Assay Code: WP2+, Evaluation Type: Evaluation A (Pre-1980)
  mutagenic call: active; positive
Species/Cell Type: Escherichia coli WP2 UVRA, Assay Type: Tryptophan reverse gene mutation, Assay Code: WPU-, Evaluation Type: Evaluation A (Pre-1980)
  mutagenic call: inactive; negative

## C[CH2][Hg][N](c1ccccc1)S(=O)(=O)c1ccc(C)cc1
Species/Cell Type: Drosophila melanogaster, Assay Type: Sex-linked recessive lethal gene mutation, Assay Code: SRL+, Evaluation Type: Evaluation A (Pre-1980)
  mutagenic call: active; positive

## Cc1cc2nc3ccc(N(C)C)cc3nc2cc1NC(=O)CN(C)N=O
[2]
  mutagenic call: no conclusion

## CCCC(C)(C)C(=O)Nc1ccc(Cl)cc1
[5]
  mutagenic call: inactive; negative

## CN(CCC(=O)OC[C@H](N)C(=O)O)N=O
Species/Cell Type: Escherichia coli polA (W3110 vs P3478), Assay Type: Rec-assay, DNA effects (bacterial DNA repair), Assay Code: RE2+, Evaluation Type: Evaluation A (Pre-1980)
  mutagenic call: active; positive
Species/Cell Type: Escherichia coli polA (W3119 vs P3478), Assay Type: Rec-assay, DNA effects (bacterial DNA repair), Assay Code: RE1T, Evaluation Type: Evaluation A (Pre-1980)
  mutagenic call: no conclusion

## CCCOc1ccc(CC(=O)OC)cc1CSC(=N)N
Species/Cell Type: Saccharomyces cerevisiae, Assay Type: Reverse gene mutation, Assay Code: YERT, Evaluation Type: Evaluation A (Pre-1980)
  mutagenic call: no conclusion

## CN/C(=C\[N+](=O)[O-])NCCSCc1ccc(CN(C)C)o1
Species/Cell Type: Nonhuman, Assay Type: Sister-chromatid exchange (SCE) in vivo, Assay Code: SC3T, Evaluation Type: Evaluation B (Post-1980)
  mutagenic call: no conclusion
